The source of these data is ChEMBL document CHEMBL1142979, “Nonprenylated rotenoids, a new class of potent breast cancer resistance protein inhibitors” (J Med Chem, 2007).

SMILES strings stand for the structures.

One data set deals with T1, Broad substrate specificity ATP-binding cassette transporter ABCG2 (Homo sapiens, UniProt Q9UNQ0).
T1 sequence (Q9UNQ0 whole entry): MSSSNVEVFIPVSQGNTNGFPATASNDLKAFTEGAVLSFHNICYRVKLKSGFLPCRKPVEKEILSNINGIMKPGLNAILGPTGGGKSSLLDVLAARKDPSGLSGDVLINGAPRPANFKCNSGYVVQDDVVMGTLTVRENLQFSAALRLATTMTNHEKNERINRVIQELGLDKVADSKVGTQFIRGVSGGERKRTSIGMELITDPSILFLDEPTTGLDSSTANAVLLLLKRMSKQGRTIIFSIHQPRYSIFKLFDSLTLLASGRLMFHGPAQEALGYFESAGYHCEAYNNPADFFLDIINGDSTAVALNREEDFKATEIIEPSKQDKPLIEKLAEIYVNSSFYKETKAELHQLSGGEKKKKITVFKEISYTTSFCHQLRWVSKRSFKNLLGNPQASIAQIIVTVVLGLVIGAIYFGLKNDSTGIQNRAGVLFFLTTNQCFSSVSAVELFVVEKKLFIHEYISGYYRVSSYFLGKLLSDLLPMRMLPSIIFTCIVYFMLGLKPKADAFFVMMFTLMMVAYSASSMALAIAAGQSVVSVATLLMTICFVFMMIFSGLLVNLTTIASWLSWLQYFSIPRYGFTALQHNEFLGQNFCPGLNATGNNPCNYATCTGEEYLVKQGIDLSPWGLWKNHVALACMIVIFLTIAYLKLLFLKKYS
Nature of the data set: Inhibition of BCRP expressed in human HEK293 cells assessed as maximal mitoxantrone accumulation at 10 uM relative control. The class given is cell-based. Further details: scale not given: the % may be the effect or the level left. The conditions noted are these: hek293, 10 µM.
Regarding `COC1Oc2ccccc2-c2c1oc1cc(O)c(C)c(O)c1c2=O` (stereo not drawn) [BOERAVINONE A], the Activity is 27%. For `Cc1c(O)cc2oc3c(c(=O)c2c1O)-c1ccccc1OC3O` (stereo not drawn) [BOERAVINONE B], the Activity is given as 55%. Consider `COc1cc2c(c(O)c1C)C(=O)[C@]1(O)c3cccc(O)c3OC[C@H]1O2` [BOERAVINONE C], for which the Activity is given as 31%.

Consider `Cc1c(O)cc2oc3c(c(=O)c2c1O)-c1ccc(O)cc1OC3O` (stereo not drawn) [BOERAVINONE E], for which the Activity was found to be 56%. Still for that read-out and setting: as for `O=c1c2c(oc3cc(O)cc(O)c13)C(O)Oc1ccccc1-2` (stereo not drawn) [COCCINEONE B], the figure is 29%; as for `COc1cc2c(c(O)c1OC)C(=O)[C@]1(O)c3ccccc3OC[C@H]1O2` [COCCINEONE E], 15%.

Another data set deals with T1, Broad substrate specificity ATP-binding cassette transporter ABCG2. The experiment in a line: Inhibition of BCRP expressed in human HEK293 cells assessed as maximal mitoxantrone accumulation at 5 uM relative control. The format is cell-based. Further details: scale not given: the % may be the effect or the level left. The note with it: hek293, 5 µM.
As to `COc1cc(O)c2c(=O)c3c(oc2c1)C(OC)Oc1c(O)cccc1-3` (stereo not drawn) [BOERAVINONE G], the Activity was found to be 92%. In the case of `COc1cc2oc3c(c(=O)c2c(O)c1C)-c1cccc(O)c1OC3OC` (stereo not drawn) [BOERAVINONE H], the Activity stood at 68%.

The target in another data set is T2, BCRP (ABCG2) (Homo sapiens, UniProt Q9UNQ0).
T2 sequence (Q9UNQ0 whole entry): T1 sequence (Q9UNQ0 whole entry)
Nature of the data set: Inhibition of BCRP expressed in human HEK293 cells assessed as maximal mitoxantrone accumulation at 20 uM relative control. The format is cell-based. The conditions noted are these: HEK293 cells that express BCRP, probe mitoxantrone, read-out: Activity.
For the compound `COc1cc2oc3c(c(=O)c2c(O)c1C)-c1cccc(O)c1OC3O` (stereo not drawn) [9-O-METHYL-4-HYDROXYBOERAVINONE B], the Emax at 20 µM was 15%. As for `COc1c(C)c(O)c2c(=O)c3c(oc2c1O)C(O)Oc1ccccc1-3` (stereo not drawn) [BOERAVINONE I], the Emax at 20 µM turned out to be 12%. As for `Cc1c(O)cc2oc3oc4cc(O)ccc4c3c(=O)c2c1O` [BOERAVINONE J], the Emax at 20 µM was found to be 15%.

The next data set deals with T1, Broad substrate specificity ATP-binding cassette transporter ABCG2. The experiment in a line: Inhibition of BCRP expressed in human HEK293 cells assessed as maximal mitoxantrone accumulation. The class given is cell-based.
Conditions: not given
`COc1cc(O)c2c(=O)c3c(oc2c1)C(OC)Oc1c(O)cccc1-3` (stereo not drawn) [BOERAVINONE G]: the IC50 is 700 nM. Take `COc1cc2oc3c(c(=O)c2c(O)c1C)-c1cccc(O)c1OC3OC` (stereo not drawn) [BOERAVINONE H]: the IC50 was 2500 nM.
